Measurements taken from ChEMBL document CHEMBL2331413, “Novel in vivo active anti-malarials based on a hydroxy-ethyl-amine scaffold” (Bioorg Med Chem Lett, 2013).

Key:
Format in all cases: functional, organism-based
Plasmodium falciparum [1] = assay: Antimalarial activity against chloroquine-sensitive Plasmodium falciparum NF54 infected in RBC after 72 hrs by [3H]hypoxanthine incorporation assay in presence of 50 % serum
Plasmodium falciparum [2] = assay: Antimalarial activity against chloroquine-sensitive Plasmodium falciparum NF54 infected in RBC after 72 hrs by [3H]hypoxanthine incorporation assay in presence of 0.5 % albumax
Plasmodium falciparum [3] = assay: Antimalarial activity against chloroquine-sensitive Plasmodium falciparum NF54 infected in RBC after 24 hrs by [3H]hypoxanthine incorporation assay in presence of 0.5 % albumax
Plasmodium falciparum [4] = assay: Antimalarial activity against chloroquine-sensitive Plasmodium falciparum NF54 infected in RBC after 48 hrs by [3H]hypoxanthine incorporation assay in presence of 0.5 % albumax

| SMILES | IC50 (Plasmodium falciparum [1]) | IC50 (Plasmodium falciparum [2]) | IC50 (Plasmodium falciparum [3]) | IC50 (Plasmodium falciparum [4]) |
| --- | --- | --- | --- | --- |
| CC(NC[C@@H](O)[C@H](Cc1ccccc1)NC(=O)c1ccc(N2CCN(C)CC2)cc1)c1ccc(O)c(CN2CCCCC2)c1 (stereo partly drawn) | 0.125 µM | 0.203 µM |  |  |
| CN(C)c1cccc(C(=O)N[C@@H](Cc2ccccc2)[C@H](O)CNC(C)(C)c2ccccc2)c1 |  | 0.102 µM |  |  |
| C[C@@H](NC[C@@H](O)[C@H](Cc1ccccc1)NC(=O)c1cccc(C(=O)N2CCN(C)CC2)c1)c1ccccc1 | 0.102 µM | 0.098 µM |  |  |
| CCCN(CCC)C(=O)c1cccc(C(=O)N[C@@H](Cc2ccccc2)[C@H](O)CN2CCN(C(C)=O)CC2)c1 |  | > 0.5 µM |  |  |
| CCCN(CCC)C(=O)c1cccc(C(=O)N[C@@H](Cc2ccccc2)[C@H](O)CNCCc2ccccc2)c1 |  | 0.186 µM |  |  |
| CCCN(CCC)Cc1ccc(Nc2ccc(C(=O)N[C@@H](Cc3ccccc3)[C@H](O)CN[C@H](C)c3ccccc3)cc2)cc1O | 0.02 µM | 0.022 µM | 0.077 µM |  |
| CCCN(CCC)C(=O)c1ccccc1C(=O)N[C@@H](Cc1ccccc1)[C@H](O)CN[C@H](C)c1ccccc1 | > 0.5 µM | > 0.5 µM |  |  |
| CCCN(CCC)C(=O)c1cccc(C(=O)N[C@@H](Cc2ccccc2)[C@H](O)CNC2Cc3ccccc3C2)c1 |  | 0.011 µM |  |  |
| CC(C)(NC[C@@H](O)[C@H](Cc1ccccc1)NC(=O)c1ccncc1)c1ccccc1 |  | > 0.5 µM |  |  |
| CCCN(CCC)C(=O)c1cccc(C(=O)N[C@@H](Cc2ccccc2)[C@H](O)CNCc2ccccc2)c1 |  | > 0.5 µM |  |  |
| CCCN(CCC)C(=O)c1cccc(C(=O)N[C@@H](Cc2ccccc2)[C@H](O)CNC(C)(C)c2ccc(C#N)cc2)c1 | 0.188 µM | 0.055 µM |  |  |
| CCCN(CCC)C(=O)c1cccc(C(=O)N[C@@H](Cc2ccccc2)[C@H](O)CNC2(c3ccccc3)CCCC2)c1 | 0.168 µM | 0.012 µM |  |  |
| CCCN(CCC)C(=O)c1cccc(C(=O)N[C@@H](Cc2ccccc2)[C@H](O)CN[C@@H](C)C2CCCCC2)c1 | 0.466 µM | 0.324 µM |  |  |
| CCCN(CCC)C(=O)c1cccc(C(=O)N[C@@H](Cc2ccccc2)[C@H](O)CNC2CCc3ccccc32)c1 (stereo partly drawn) |  | 0.048 µM |  |  |
| CCCNC(=O)c1cccc(C(=O)N[C@@H](Cc2ccccc2)[C@H](O)CN[C@H](C)c2ccccc2)c1 | 0.03 µM | 0.012 µM |  |  |
| CCN(CC)Cc1cc(CNC[C@@H](O)[C@H](Cc2ccccc2)NC(=O)c2ccc(N3CCN(C)CC3)cc2)ccc1O | 0.167 µM | 0.333 µM | 0.408 µM | 0.314 µM |
| CCCN(CCC)C(=O)c1cccc(C(=O)N[C@@H](Cc2ccccc2)[C@H](O)CNC(C)(C)c2ccc(F)cc2)c1 | 0.11 µM | 0.024 µM |  |  |

| SMILES | IC50 (Plasmodium falciparum [1]) | IC50 (Plasmodium falciparum [2]) | IC50 (Plasmodium falciparum [3]) | IC50 (Plasmodium falciparum [4]) |
| --- | --- | --- | --- | --- |
| CCN(CC)Cc1cc(C(=O)N[C@@H](Cc2ccccc2)[C@H](O)CN[C@H](C)c2ccccc2)ccc1O | > 0.5 µM | 0.357 µM | 0.38 µM | 0.305 µM |
| CN1CCN(c2ccc(C(=O)N[C@@H](Cc3ccccc3)[C@H](O)CNC3CCCC3)cc2)CC1 | 0.075 µM | 0.081 µM |  |  |
| CC(C)(NC[C@@H](O)[C@H](Cc1ccccc1)NC(=O)c1cccc(-c2ccccc2)c1)c1ccccc1 |  | 0.037 µM |  |  |
| CCN(CC)Cc1cc(Nc2ccc(C(=O)N[C@@H](Cc3ccccc3)[C@H](O)CN[C@H](C)c3ccccc3)cc2)ccc1O | 0.0036 µM | 0.0083 µM | 0.133 µM | < 0.0078 µM |
| CCCN(CCC)C(=O)c1cccc(C(=O)N[C@@H](Cc2ccccc2)[C@H](O)CNC(C)(C)c2cccc(C#N)c2)c1 | 0.0086 µM | < 0.0015 µM |  |  |
| C[C@@H](NC[C@@H](O)[C@H](Cc1ccccc1)NC(=O)c1cccc(C(=O)N2CCCCCC2)c1)c1ccccc1 | 0.013 µM | 0.0038 µM |  |  |
| CCCN(CCC)C(=O)c1cccc(C(=O)N[C@@H](Cc2ccccc2)[C@H](O)CNC(C)C)c1 | 0.15 µM | 0.078 µM |  |  |
| CCCN(CCC)C(=O)c1cccc(C(=O)N[C@@H](Cc2ccccc2)[C@H](O)CNC2CCOCC2)c1 | 0.034 µM | 0.016 µM |  |  |
| CC(C)C[C@H](NC(=O)c1ccc(N2CCN(C)CC2)cc1)[C@H](O)CNC1CCCC1 | > 0.5 µM | > 0.5 µM |  |  |
| CN1CCN(c2ccc(C(=O)N[C@@H](Cc3ccccc3)C(F)(F)CNC3CCCC3)cc2)CC1 | > 0.5 µM | > 0.5 µM |  |  |
| CC(=O)N[C@@H](Cc1ccccc1)[C@H](O)CNC(C)(C)c1ccccc1 |  | > 0.5 µM |  |  |
| CC(C)(NC[C@@H](O)[C@H](Cc1ccccc1)NC(=O)c1cccc(C(F)(F)F)c1)c1ccccc1 |  | 0.3 µM |  |  |
| CC(C)(NC[C@@H](O)[C@H](Cc1ccccc1)NC(=O)Cc1ccccc1)c1ccccc1 |  | > 0.5 µM |  |  |
| CCCN(CCC)C(=O)c1cccc(C(=O)N[C@@H](Cc2ccccc2)[C@H](O)CNC(C)(C)c2ccc(OC)cc2)c1 | 0.044 µM | 0.013 µM |  |  |
| CCCN(CCC)C(=O)c1cccc(C(=O)N[C@@H](Cc2ccccc2)[C@H](O)CNC2CCN(C)CC2)c1 | > 0.5 µM | > 0.5 µM |  |  |
| CCCN(CCC)C(=O)c1cccc(C(=O)N[C@H](CCNC(C)C)Cc2ccccc2)c1 | > 0.5 µM | > 0.5 µM |  |  |
| CC(C)(NC[C@@H](O)[C@H](Cc1ccccc1)NC(=O)C1CCCC1)c1ccccc1 |  | > 0.5 µM |  |  |
